Among the test systems are A498 renal; HCC-2998 colon; HCT-15 colon; IGROV1 ovarian; MDA-MB-231 breast; SF-268 CNS; SNB-19 CNS; TK-10 renal; U251 CNS; UACC-257 melanoma.
Holding throughout (test): NCI-60 cell line screen, 48 h

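All cell lines were grown in 96-well plates and treated with compound for 48 hours. Abbreviation: GI50, concentration required for 50% inhibition of growth. TGI is the concentration that stops growth completely.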 Where only a bound is given, the exact number is not on record here.

With `COc1ccc2c3c(ccc2c1)NC(C(=O)O)CC3` (stereo not given), the TGI in the experiment on A498 renal, in the experiment with HCC-2998 colon, with HCT-15 colon, in the experiment on IGROV1 ovarian, in the experiment with MDA-MB-231 breast and with SF-268 CNS was over 100 µM each time. Besides, the TGI in the experiment on SNB-19 CNS, in the experiment on TK-10 renal, in the experiment with U251 CNS and with UACC-257 melanoma was over 100 µM in each case.
On to `O=C(/C=C/c1ccccc1)Nc1ncc(Cc2ccccc2)s1`, for which the GI50 with A498 renal was 0.24 µM; with HCC-2998 colon it was 0.303 µM; in the experiment with HCT-15 colon, 0.066 µM; in the experiment on IGROV1 ovarian it was 0.491 µM; in the experiment on MDA-MB-231 breast, 0.415 µM; in the experiment on SF-268 CNS, 0.963 µM. Besides, the GI50 was 0.392 µM with SNB-19 CNS, 1.34 µM in the experiment with TK-10 renal, 0.271 µM in the experiment on U251 CNS and 10.7 µM in the experiment with UACC-257 melanoma. In addition, the TGI with A498 renal was 3.39 µM; in the experiment on HCC-2998 colon it was 3.42 µM; with HCT-15 colon, over 100 µM; in the experiment on IGROV1 ovarian it was over 64.5 µM; in the experiment with MDA-MB-231 breast, 9.28 µM; in the experiment on SF-268 CNS, over 100 µM. The TGI with SNB-19 CNS was over 52.3 µM; with TK-10 renal it was over 46.4 µM; in the experiment on U251 CNS it was 6.25 µM; in the experiment with UACC-257 melanoma, over 100 µM.
`CCN(CC)c1ccc(CNc2cc(C)nc3ccc(OC)cc23)cc1`: the GI50 in the experiment with A498 renal is 2.24 µM; in the experiment with HCC-2998 colon, 1.77 µM; in the experiment on HCT-15 colon, 3.11 µM; with IGROV1 ovarian, 4.05 µM; in the experiment with MDA-MB-231 breast, 2.46 µM; in the experiment with SF-268 CNS it was 4.17 µM. Moreover, the GI50 in the experiment on SNB-19 CNS was 3.98 µM; in the experiment on TK-10 renal, 1.92 µM; with U251 CNS, 2.04 µM; in the experiment with UACC-257 melanoma, 2.14 µM. Also, the TGI was 10.1 µM in the experiment on A498 renal; 3.32 µM in the experiment with HCC-2998 colon; 10.8 µM in the experiment on HCT-15 colon; 19.2 µM with IGROV1 ovarian; 6.81 µM in the experiment on MDA-MB-231 breast; 16.1 µM in the experiment with SF-268 CNS. Further, the TGI in the experiment on SNB-19 CNS came out at 16.3 µM; in the experiment on TK-10 renal it was 4.64 µM; in the experiment on U251 CNS, 4.3 µM; with UACC-257 melanoma it was 4.53 µM.
Consider `O=C(CC(O)c1cccnc1)CC(O)c1cccnc1` (stereo not given), for which the TGI in the experiment with A498 renal was 30.6 µM; with HCC-2998 colon, 28.6 µM; in the experiment on HCT-15 colon it was 29.6 µM; in the experiment on IGROV1 ovarian it was 29.9 µM; in the experiment with MDA-MB-231 breast, 29.9 µM; in the experiment on SF-268 CNS, over 95.9 µM. Besides, the TGI with SNB-19 CNS was 55.4 µM; in the experiment on TK-10 renal, over 100 µM; in the experiment on U251 CNS, 33 µM; in the experiment on UACC-257 melanoma, 36.1 µM.
For the molecule `COc1ccccc1CN=C1NC(=O)/C(=C/c2ccc3ncccc3c2)S1`, the GI50 is 4.49 µM with A498 renal; 17.5 µM in the experiment with HCC-2998 colon; 4.55 µM in the experiment with HCT-15 colon; 6.56 µM with IGROV1 ovarian; 11.2 µM in the experiment with MDA-MB-231 breast; 7.89 µM in the experiment on SF-268 CNS. Further, the GI50 with SNB-19 CNS is 4.01 µM; in the experiment with TK-10 renal it was 7.97 µM; with U251 CNS, 4.51 µM; in the experiment with UACC-257 melanoma, over 25 µM. Moreover, the TGI in the experiment with A498 renal was 15.8 µM; in the experiment on HCC-2998 colon, over 25 µM; in the experiment on HCT-15 colon, over 25 µM; with IGROV1 ovarian, over 19.4 µM; with MDA-MB-231 breast, over 25 µM; in the experiment with SF-268 CNS, over 25 µM. Further, the TGI is over 25 µM in the experiment on SNB-19 CNS, over 25 µM with TK-10 renal, over 16.1 µM in the experiment on U251 CNS and over 25 µM in the experiment with UACC-257 melanoma.
For `Cc1ccc(C(=O)Nc2ccc(CN3CCN(C)CC3)c(C(F)(F)F)c2)cc1C#Cc1cnc(N)c2ccc(C#N)cc12`, the GI50 is 0.133 µM in the experiment with A498 renal; 9.41 µM in the experiment with HCC-2998 colon; 0.0558 µM in the experiment with HCT-15 colon; 0.0188 µM with IGROV1 ovarian; 0.23 µM in the experiment on MDA-MB-231 breast; 0.206 µM in the experiment on SF-268 CNS. Besides, the GI50 in the experiment on SNB-19 CNS is 3.2 µM; in the experiment with TK-10 renal it was 0.625 µM; in the experiment on U251 CNS it was 0.393 µM; in the experiment with UACC-257 melanoma it was 0.332 µM. For the same molecule, the TGI with A498 renal was 49.3 µM; with HCC-2998 colon, over 50 µM; with HCT-15 colon, 8.77 µM; in the experiment with IGROV1 ovarian, 9.55 µM; with MDA-MB-231 breast it was 2.02 µM; with SF-268 CNS, 17.2 µM. Also, the TGI in the experiment on SNB-19 CNS was 19.9 µM; in the experiment on TK-10 renal, 5.75 µM; with U251 CNS it was 9.23 µM; with UACC-257 melanoma it was over 35 µM.
For the molecule `Nc1c(C(=O)c2cccc(C(O)(CO)CO)c2)cnn1-c1ccc(F)cc1`, the GI50 with A498 renal, with HCC-2998 colon, in the experiment with HCT-15 colon, with IGROV1 ovarian, in the experiment with MDA-MB-231 breast and in the experiment on SF-268 CNS was over 25 µM in each case. Moreover, the GI50 in the experiment with SNB-19 CNS, in the experiment on TK-10 renal, in the experiment on U251 CNS and in the experiment with UACC-257 melanoma was over 25 µM throughout. Also, the TGI with A498 renal, with HCC-2998 colon, with HCT-15 colon, in the experiment on IGROV1 ovarian, with MDA-MB-231 breast and in the experiment with SF-268 CNS was over 25 µM throughout. Also, the TGI with SNB-19 CNS, in the experiment on TK-10 renal, in the experiment with U251 CNS and in the experiment on UACC-257 melanoma was over 25 µM in each case.

These data come from PubChem BioAssay (NCI).
